Experimental data published in BindingDB's records for doi:10.1021/jm00018a006 (University of Arizona, 1995).
*1 amine or outer side, *2 acyl side, *3 side chain or, on linkers, in order; H or OH if unused. Where a SMILES comes first, the peptide text is derived from it. Side-chain parts run from the residue outwards. [ ]: non-standard residue; d: D form. X4 = CC(C)C[C@@H](CN([C@@H](CCCN=C(N)N)C(=O)[*:2])[*:1])N[*:3]

Biological target: Delta-type opioid receptor (Cavia porcellus)
Experiment: Binding affinity against delta opioid receptor of Guinea pig brain homogenate using [3H]c[D-Pen2,p-Cl-Phe4,D-Pen5]enkephalin

Structure (SMILES) | IC50
CC[C@H](C)[C@H](NC(=O)[C@H](CCCN=C(N)N)NC[C@H](CCCCN)NC(=O)[C@H](CC(C)C)NC(=O)[C@H](Cc1ccccc1)NC(=O)CNC(=O)CNC(=O)[C@@H](N)Cc1ccc(O)cc1)C(=O)N[C@@H](CCCN=C(N)N)C(=O)N1CCC[C@H]1C(=O)N[C@@H](CCCCN)C(N)=O | 53 nM
CC[C@H](C)[C@H](NC(=O)[C@H](CCCN=C(N)N)NC(=O)[C@H](CCCN=C(N)N)NC(=O)[C@H](CC(C)C)NC(=O)[C@H](Cc1ccccc1)NC(=O)CNC(=O)CNC[C@@H](N)Cc1ccc(O)cc1)C(=O)N[C@@H](CCCN=C(N)N)C(=O)N1CCC[C@H]1C(=O)N[C@@H](CCCCN)C(N)=O | 198 nM
CC[C@H](C)[C@H](NC(=O)[C@H](CCCN=C(N)N)NC(=O)[C@H](CCCN=C(N)N)NC[C@H](CC(C)C)NC(=O)[C@H](Cc1ccccc1)NC(=O)CNC(=O)CNC(=O)[C@@H](N)Cc1ccc(O)cc1)C(=O)N[C@@H](CCCN=C(N)N)C(=O)N1CCC[C@H]1C(=O)N[C@@H](CCCCN)C(N)=O (H-[X4]([Phe-Gly-Gly-Tyr])RIRPK-NH2) | 32 nM
